The test system of this assay is dry eye patient. As to the kind of experiment: Peroral administration to a dry eye patient. Type of assay: in vivo, human. As to conditions: perorally administered to a dry eye patient; no method or data given.

For the substance hyaluronic acid, the “eye condition improving effect” value was “any significant eye condition improving can not be attained”.

(Values after patent US12622933B2, “Method for improving eye condition” (LAIMU CORPORATION, priority 2022, dated 2026).)
